From patent publication US20260226049A1, “NITROGEN-CONTAINING HETEROCYCLIC COMPOUND, PREPARATION METHOD THEREFOR, AND USE THEREOF” (BIVISION PHARMACEUTICALS, INC, priority 2023, published 2026)

Key:
[1] = target: T1, recombinant human prolyl oligopeptidase (PREP) (Homo sapiens, UniProt P48147); assay: Selective assay, protease inhibition (PREP); format: biochemical; conditions: substrate Z-Gly-Pro-AMC
T1 sequence (P48147 1-710): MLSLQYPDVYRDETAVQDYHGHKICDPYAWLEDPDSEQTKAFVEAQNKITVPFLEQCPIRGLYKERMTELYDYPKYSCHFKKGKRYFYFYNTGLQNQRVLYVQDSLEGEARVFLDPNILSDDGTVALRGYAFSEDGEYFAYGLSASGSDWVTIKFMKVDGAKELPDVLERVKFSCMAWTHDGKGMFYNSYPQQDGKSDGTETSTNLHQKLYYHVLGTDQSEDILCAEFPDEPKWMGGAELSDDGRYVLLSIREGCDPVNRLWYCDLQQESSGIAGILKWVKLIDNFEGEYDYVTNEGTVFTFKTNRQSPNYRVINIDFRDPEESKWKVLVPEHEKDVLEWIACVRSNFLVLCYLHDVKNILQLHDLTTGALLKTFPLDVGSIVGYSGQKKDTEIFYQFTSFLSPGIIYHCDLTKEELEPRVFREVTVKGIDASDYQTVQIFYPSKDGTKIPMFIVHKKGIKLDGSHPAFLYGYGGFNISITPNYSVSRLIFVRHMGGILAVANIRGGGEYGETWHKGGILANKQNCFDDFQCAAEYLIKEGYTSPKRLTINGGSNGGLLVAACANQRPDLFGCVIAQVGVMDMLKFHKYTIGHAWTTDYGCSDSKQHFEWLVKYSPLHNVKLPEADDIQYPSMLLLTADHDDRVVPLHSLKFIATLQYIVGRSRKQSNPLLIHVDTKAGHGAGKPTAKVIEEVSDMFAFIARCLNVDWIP
Method: The specificity of the synthesized compounds against recombinant human dipeptidyl peptidase IV (DPPIV), fibroblast activation protein (FAP), or prolyl oligopeptidase (PREP) was expressed by their half-maximal inhibitory concentration (IC50) against the proteases.
1) The synthesized compound was dissolved in DMSO to a final concentration of 100 mM.
c) For PREP assay: The test compound was diluted to a 1 mM solution using a 140 mM NaCl buffer at pH 8.0.
2) The prepared 1 mM test compound solution was serially diluted (1:10) into a row of a 96-well plate using the corresponding buffer mentioned above.
3) The substrate was prepared as a DMSO stock solution (FAP and PREP: 2.5 mM Z-Gly-Pro-AMC (VWR, Cat. No. I-1145.0050BA) in DMSO; DPPIV: 100 mM Gly-Pro-AMC (VWR, Cat. No. 100042-646) in DMSO), and subsequently the substrate stock solution was diluted 20-fold using the corresponding buffer mentioned above.
4) The enzyme was diluted into the appropriate assay buffer. The final concentrations of DPPIV, FAP, and PREP were […], respectively. To each required well in columns 2-10, 180 μL was added separately. Column 1 (A, B, C) was prepared with 200 μL of the appropriate assay buffer as a control. Column 1 (D, E, F, G, H) was prepared using 20 μL of appropriate assay buffer and 180 μL of enzyme as an inhibitor-free control. […]
7) Fluorescence was measured at λex: 380, λem: 460. […]

[2] = test system: HT1080 cell line with high FAP expression; assay: Therapeutic experiment of ^177Lu-labeled compounds in tumor-bearing mice; format: in vivo, Balb/c Nude mice; conditions: ^177Lu-labeled compound
Method: Balb/c Nude tumor-bearing mice (supplier: Shanghai Alamo Pharmaceutical Technology Co., Ltd., HT1080 cell line with high FAP expression) aged approximately 6-8 weeks were randomly assigned to 13 experimental groups based on tumor volume, with 5 mice per group. Animal body weight and tumor size were measured, and administration was initiated on the grouping day starting with Group 1 (control group: normal saline). General health and appearance were observed daily after the start of the experiment. Animal body weight and tumor size were measured before each sample collection time point. Any abnormal observations detected during the entire study period were required to be recorded in the raw data.
The synthesized compounds were labeled with ^177Lu and subsequently utilized in the therapeutic assay on mouse tumor models. […] Furthermore, no significant changes in mouse body weight (FIG. 8) were observed throughout the experimental period.
• TGI^TV: Relative tumor inhibition rate (TGI^TV): TGI^TV (%)=[1−(Ti−T0)/(Vi−V0)]×100%; • (Ti: average tumor volume of the treatment group on day i of administration, TO: average tumor volume of the treatment group on day 0 of administration; Vi: average tumor volume of the solvent control group on day i of administration, V0: average tumor volume of the solvent control group on day 0 of administration) • T/C: T/C % is one of the most commonly used indicators for tumor response to treatment: T/C %=T/C*100%; • (T represents the average tumor volume of the treatment group at a specific time point; C represents the average tumor volume of the control group at a specific time point.)
The differences between the treatment groups (tumor volumes of the second, third, fourth, and fifth groups) and the control group (tumor volume of the first group) and between the tumor volumes of the first, third, fourth, and fifth groups and the tumor volume of the second group were analyzed using the two-way ANOVA Fisher's LSD test method. P-values less than 0.05 were considered statistically significant. Both statistical significance and biological significance were taken into account during the result analysis.

IC50 [1]: > 1000 nM
SMILES: N#C[C@@H]1CC(F)(F)CN1C(=O)CNC(=O)c1cccc2c1CCN(C(=O)CCC(=O)NCCNC(=O)CCC(C(=O)O)N1CCN(CC(=O)O)CCN(CC(=O)O)CCN(CC(=O)O)CC1)C2 (some centres unmarked) [JHH5]
therapeutic effects in mouse tumor model [2]: dose-dependent therapeutic effects
